# Experimental data: patent US9974761B2, “Medications for deposition on biological surfaces” (The Procter & Gamble Company, priority 2014, dated 2018)
# Test system: human TRPM8
# Assay: TRPM8 Protocol-FLIPR Assay (intracellular Ca2+)
# Assay type: cell-based
# Details: for TRPM8 Time Course Activity 50 sec % of WS5 / TRPM8 Time Course Activity 3 min % of WS5 / TRPM8 Time Course Activity 5 min % of WS5 / TRPM8 Time Course Activity 10 min % of WS5: vs 30 uM WS-5; for TRPM8 Time Course Activity 3 min: fluorescence at 3 min; for TRPM8 Time Course Activity 5 min: fluorescence at 5 min; for TRPM8 Time Course Activity 10 min: fluorescence at 10 min
# Description: To determine whether TRPM8 is activated, the intracellular calcium ion (Ca^2+) level was measured from transfected cells with the TRPM8 receptor sequence (SEQ ID NO: 3). HEK-293 (human embryonic kidney) cells stably transfected with human TRPM8 were grown in 15 ml growth medium (high glucose DMEM (Dulbecco's Modification of Eagle's Medium) supplemented with 10% FBS (fetal bovine serum), 100 ug/ml penicillin/streptomycin, 5 μg/ml blasticindin, and 100 μg/ml zeocin) in a 75 cm^2 flask for 3 days at 37° C. in a mammalian cell culture incubator set at 5% CO2 Cells were detached with addition of 2 ml of trypsin-EDTA buffer (GIBCO® 25200, Invitrogen, Grand Island, N.Y.) for about 2-3 min. Trypsin was inactivated by addition of 8 ml growth medium. Cells were transferred to a 50 ml tube and centrifuged at 850 rpm for 3 minutes to remove medium. After centrifugation, a pellet of cells was formed in the bottom of the tube separating them from the supernatant solution. The supernatant was discarded and the cell pellet was suspended in 1 ml of fresh growth medium to which 5 μl (12.5 μg) of Fluo-4 AM (Molecular Probes, Inc., Eugene, Oreg.) calcium indicator was added and incubated for 30 min with gentle shaking. Fluo-4 AM is a fluorescent dye used for quantifying cellular Ca^2+ concentrations in the 100 nM to 1 microM range. At the end of 30 minutes, 45 ml of assay buffer (1× HBSS (Hank's Balanced Salt Solution), 20 mM HEPES (4-(2-Hydroxyethyl)-1-piperazineethanesulfonic acid)) was added to wash cells and the resulting mixture was then centrifuged at 850 rpm for 3 minutes to remove excess buffer and Fluo-4 AM calcium indicator.
# The pelleted cells were re-suspended in 10 ml assay buffer and 90 μl aliquots (˜50,000 cells) per well delivered to a 96-well assay plate containing 10 μl of test compounds (1 mM in assay buffer, […]) or buffer control and incubated at room temperature for 30 minutes. After 30 minutes, a plate was placed into a fluorometric imaging plate reader (FLIPR384 from Molecular Devices, Sunnyvale, Calif.) and basal fluorescence recorded (excitation wave length 488 nm and emission wave length 510 nm). Then 20 μl of […] of TRPM8 agonist WS5 coolant in the assay buffer was added and fluorescence recorded. For determining the direct effect of test compounds on TRPM8, fluorescence was measured immediately after addition of each compound (TABLES 2 and 3). Additional discussion of the FLIPR method can be found in Smart et al., Characterization using FLIPR of human vanilloid VR1 receptor pharmacology, European Journal of Pharmacology 417, 51-58 (2001) and Liu et al., Development and validation of a platelet calcium flux assay using a fluorescent imaging plate reader, Analytical Biochemistry 357, 216-224 (2006).
# TRPM8 activation was determined by measuring intracellular calcium ion (Ca^2+) level from transfected cells with the TRPM8 receptor gene, as described in EXAMPLE 1, the results of which are shown in TABLES 4 and 5.
compound,measurement,setting,value
"CC(C)[C@@H]1CC[C@@H](C)C[C@H]1C(=O)NCC(NC(=O)[C@@H](C)N)c1ccccc1 (single isomer, unassigned) [Compound 28 fraction 1]",TRPM8 Time Course Activity 50 sec % of WS5,dose 6.1 nM,8.8%
same,TRPM8 Time Course Activity 3 min % of WS5,dose 6.1 nM,36.5%
same,TRPM8 Time Course Activity 5 min % of WS5,dose 6.1 nM,46.7%
same,TRPM8 Time Course Activity 10 min % of WS5,dose 6.1 nM,56.1%
same,TRPM8 Time Course Activity 3 min,dose 6.1 nM,3452.0
same,TRPM8 Time Course Activity 5 min,dose 6.1 nM,4426.0
same,TRPM8 Time Course Activity 10 min,dose 6.1 nM,5375.0
same,TRPM8 Time Course Activity 50 sec % of WS5,dose 12.2 nM,30.0%
same,TRPM8 Time Course Activity 3 min % of WS5,dose 12.2 nM,93.0%
same,TRPM8 Time Course Activity 5 min % of WS5,dose 12.2 nM,103.8%
same,TRPM8 Time Course Activity 10 min % of WS5,dose 12.2 nM,115.5%
same,TRPM8 Time Course Activity 3 min,dose 12.2 nM,8783.0
same,TRPM8 Time Course Activity 5 min,dose 12.2 nM,9830.0
same,TRPM8 Time Course Activity 10 min,dose 12.2 nM,11065.0
same,TRPM8 Time Course Activity 50 sec % of WS5,dose 24.4 nM,19.2%
same,TRPM8 Time Course Activity 3 min % of WS5,dose 24.4 nM,67.8%
same,TRPM8 Time Course Activity 5 min % of WS5,dose 24.4 nM,80.2%
same,TRPM8 Time Course Activity 10 min % of WS5,dose 24.4 nM,92.7%
same,TRPM8 Time Course Activity 3 min,dose 24.4 nM,6405.0
same,TRPM8 Time Course Activity 5 min,dose 24.4 nM,7593.0
same,TRPM8 Time Course Activity 10 min,dose 24.4 nM,8879.0
same,TRPM8 Time Course Activity 50 sec % of WS5,dose 48.8 nM,29.0%
same,TRPM8 Time Course Activity 3 min % of WS5,dose 48.8 nM,84.8%
same,TRPM8 Time Course Activity 5 min % of WS5,dose 48.8 nM,94.9%
same,TRPM8 Time Course Activity 10 min % of WS5,dose 48.8 nM,106.8%
same,TRPM8 Time Course Activity 3 min,dose 48.8 nM,8017.0
same,TRPM8 Time Course Activity 5 min,dose 48.8 nM,8983.0
same,TRPM8 Time Course Activity 10 min,dose 48.8 nM,10224.0
same,TRPM8 Time Course Activity 50 sec % of WS5,dose 97.6 nM,39.4%
same,TRPM8 Time Course Activity 3 min % of WS5,dose 97.6 nM,103.1%
same,TRPM8 Time Course Activity 5 min % of WS5,dose 97.6 nM,113.1%
same,TRPM8 Time Course Activity 10 min % of WS5,dose 97.6 nM,125.4%
same,TRPM8 Time Course Activity 3 min,dose 97.6 nM,9744.0
same,TRPM8 Time Course Activity 5 min,dose 97.6 nM,10711.0
same,TRPM8 Time Course Activity 10 min,dose 97.6 nM,12011.0
same,TRPM8 Time Course Activity 50 sec % of WS5,dose 195 nM,53.9%
same,TRPM8 Time Course Activity 3 min % of WS5,dose 195 nM,116.8%
same,TRPM8 Time Course Activity 5 min % of WS5,dose 195 nM,124.9%
same,TRPM8 Time Course Activity 10 min % of WS5,dose 195 nM,136.2%
same,TRPM8 Time Course Activity 3 min,dose 195 nM,11037.0
same,TRPM8 Time Course Activity 5 min,dose 195 nM,11824.0
same,TRPM8 Time Course Activity 10 min,dose 195 nM,13046.0
same,TRPM8 Time Course Activity 3 min % of WS5,dose 390 nM,120.4%
same,TRPM8 Time Course Activity 5 min % of WS5,dose 390 nM,126.4%
same,TRPM8 Time Course Activity 10 min % of WS5,dose 390 nM,137.0%
same,TRPM8 Time Course Activity 3 min,dose 390 nM,11373.0
same,TRPM8 Time Course Activity 5 min,dose 390 nM,11968.0
same,TRPM8 Time Course Activity 10 min,dose 390 nM,13121.0
same,TRPM8 Time Course Activity 3 min % of WS5,dose 781 nM,128.9%
same,TRPM8 Time Course Activity 5 min % of WS5,dose 781 nM,133.3%
same,TRPM8 Time Course Activity 10 min % of WS5,dose 781 nM,142.7%
same,TRPM8 Time Course Activity 3 min,dose 781 nM,12182.0
same,TRPM8 Time Course Activity 5 min,dose 781 nM,12618.0
same,TRPM8 Time Course Activity 10 min,dose 781 nM,13661.0
same,TRPM8 Time Course Activity 3 min % of WS5,dose 1.563 uM,128.4%
same,TRPM8 Time Course Activity 5 min % of WS5,dose 1.563 uM,132.0%
same,TRPM8 Time Course Activity 10 min % of WS5,dose 1.563 uM,140.4%
same,TRPM8 Time Course Activity 3 min,dose 1.563 uM,12135.0
same,TRPM8 Time Course Activity 5 min,dose 1.563 uM,12499.0
same,TRPM8 Time Course Activity 10 min,dose 1.563 uM,13440.0
same,TRPM8 Time Course Activity 3 min % of WS5,dose 3.125 uM,133.4%
same,TRPM8 Time Course Activity 5 min % of WS5,dose 3.125 uM,136.7%
same,TRPM8 Time Course Activity 10 min % of WS5,dose 3.125 uM,144.6%
same,TRPM8 Time Course Activity 3 min,dose 3.125 uM,12602.0
same,TRPM8 Time Course Activity 5 min,dose 3.125 uM,12939.0
same,TRPM8 Time Course Activity 10 min,dose 3.125 uM,13850.0
same,TRPM8 Time Course Activity 3 min % of WS5,dose 6.25 uM,135.2%
same,TRPM8 Time Course Activity 5 min % of WS5,dose 6.25 uM,138.3%
same,TRPM8 Time Course Activity 10 min % of WS5,dose 6.25 uM,147.3%
same,TRPM8 Time Course Activity 3 min,dose 6.25 uM,12775.0
same,TRPM8 Time Course Activity 5 min,dose 6.25 uM,13098.0
same,TRPM8 Time Course Activity 10 min,dose 6.25 uM,14102.0
same,TRPM8 Time Course Activity 3 min % of WS5,dose 12.5 uM,133.3%
same,TRPM8 Time Course Activity 5 min % of WS5,dose 12.5 uM,137.3%
same,TRPM8 Time Course Activity 10 min % of WS5,dose 12.5 uM,145.6%
same,TRPM8 Time Course Activity 3 min,dose 12.5 uM,12591.0
same,TRPM8 Time Course Activity 5 min,dose 12.5 uM,12997.0
same,TRPM8 Time Course Activity 10 min,dose 12.5 uM,13947.0
same,TRPM8 Time Course Activity 3 min % of WS5,dose 25 uM,137.8%
same,TRPM8 Time Course Activity 5 min % of WS5,dose 25 uM,141.0%
same,TRPM8 Time Course Activity 10 min % of WS5,dose 25 uM,149.8%
same,TRPM8 Time Course Activity 3 min,dose 25 uM,13020.0
same,TRPM8 Time Course Activity 5 min,dose 25 uM,13354.0
same,TRPM8 Time Course Activity 10 min,dose 25 uM,14341.0
same,TRPM8 Time Course Activity 3 min % of WS5,dose 50 uM,130.1%
same,TRPM8 Time Course Activity 5 min % of WS5,dose 50 uM,133.7%
same,TRPM8 Time Course Activity 10 min % of WS5,dose 50 uM,137.5%
same,TRPM8 Time Course Activity 3 min,dose 50 uM,12295.0
same,TRPM8 Time Course Activity 5 min,dose 50 uM,12654.0
same,TRPM8 Time Course Activity 10 min,dose 50 uM,13169.0
same,TRPM8 Time Course Activity 3 min % of WS5,dose 100 uM,132.5%
same,TRPM8 Time Course Activity 5 min % of WS5,dose 100 uM,135.7%
same,TRPM8 Time Course Activity 10 min % of WS5,dose 100 uM,137.7%
same,TRPM8 Time Course Activity 3 min,dose 100 uM,12520.0
same,TRPM8 Time Course Activity 5 min,dose 100 uM,12844.0
same,TRPM8 Time Course Activity 10 min,dose 100 uM,13187.0
